Common to all, as to assay: inhibition of tumour cell growth, NCI panel, 48 h
In assay [1] the test system is A549.
Assay [2] concerns COLO 205.
Assay [3] deals with EKVX.
Assay [4] relates to HCC 2998.
Assay [5] relates to HT-29.
Assay [6] has as its system K562.
Assay [7] deals with KM12.
In assay [8] the test system is M14.
For assay [9], the system named is MCF7.
Assay [10] has as its system MDA-N.
Assay [11] deals with MOLT-4.
Assay [12] deals with NCI-H460.
Assay [13] concerns NCI/ADR-RES.
Assay [14] deals with SF-268.
For assay [15], the system named is SF-295.
For assay [16], the system named is SK-MEL-2.
The test system of assay [17] is SK-MEL-5.
For assay [18], the system named is SN12C.
The test system of assay [19] is TK-10.
In assay [20] the test system is UO-31.

The values below come from ChEMBL document CHEMBL1201862, “PubChem BioAssay data set” (2004).

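Where inhibition never reached the appropriate level, the endpoint shown equals the highest concentration tested. Otherwise, values were interpolated linearly from a five-concentration, 48-hour dose response in 96-well plates. Abbreviation: GI50, concentration required for 50% inhibition of growth.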 Activity calls are given as the source filed them. Cut-off read from the data, not from the text of the source: active = GI50 up to about 1.1 µM and inactive = higher.

As to `O=C(O)C1CC(O)CN1` (stereo not given), the GI50 in assay [1], in assay [2], in [3], in assay [4], in [5] and in assay [6] was > 100 µM (inactive) throughout. Further, the GI50 in assay [7], in assay [8], in [9], in [10], in assay [11] and in assay [12] was > 100 µM (inactive) in each case. The GI50 in assay [13], in assay [14], in assay [15], in assay [16], in assay [17] and in [18] was > 100 µM (inactive) each time. Further, the GI50 in [19] and in assay [20] was > 100 µM (inactive) in each case.

Take `CN(C)c1ccc(C(c2ccc(N(C)C)cc2)c2ccc([N+](=O)[O-])cc2)cc1`: the GI50 in assay [1], in [2], in assay [3], in assay [4], in assay [5] and in assay [6] was > 100 µM (inactive) throughout. Moreover, the GI50 in [7], in assay [8], in assay [9], in [10], in [11] and in [12] was > 100 µM (inactive) throughout. In addition, the GI50 in [13], in assay [14], in assay [15], in assay [16], in assay [17] and in assay [18] was > 100 µM (inactive) each time. Moreover, the GI50 in assay [19] and in [20] was > 100 µM (inactive) each time.

Consider `CC(C)CNc1nc(N)nc(O)c1NC=O`, for which the GI50 in assay [1], in assay [2], in [3], in assay [4], in [5] and in assay [6] was > 100 µM (inactive) throughout. The GI50 in assay [7], in assay [8], in [9], in assay [10], in assay [11] and in assay [12] was > 100 µM (inactive) each time. Moreover, the GI50 in assay [13], in assay [14], in [15], in assay [16], in assay [17] and in [18] was > 100 µM (inactive) in each case. Besides, the GI50 in assay [19] and in assay [20] was > 100 µM (inactive) throughout.

Consider `O=C(NNC(=O)c1ccccc1O)c1cccc(Br)c1`, for which the GI50 in [1] was 25.5 µM (inactive); in [2], 38.7 µM (inactive); in assay [3], 23.6 µM (inactive); in assay [4], 17.7 µM (inactive); in [5] it was 43 µM (inactive); in [6], 46.7 µM (inactive). The GI50 is > 42.6 µM (inactive) in assay [7]; 26.9 µM (inactive) in assay [8]; 6.71 µM (inactive) in assay [9]; > 57.5 µM (inactive) in assay [10]; 9.23 µM (inactive) in [11]; 8.43 µM (inactive) in [12]. Besides, the GI50 in assay [13] was 21.1 µM (inactive); in [14] it was 24.9 µM (inactive); in [15], 27.3 µM (inactive); in [16], > 70 µM (inactive); in assay [17], 24.2 µM (inactive); in assay [18] it was 98.9 µM (inactive). In addition, the GI50 was > 100 µM (inactive) in [19] and 10.7 µM (inactive) in assay [20].

With `N#C/C=C1\C=CC(O)C(O)C1OC1OC(CO)C(O)C(O)C1O` (stereo not given), the GI50 in [1], in assay [2], in [3], in [4], in assay [5] and in assay [6] was > 100 µM (inactive) throughout. Also, the GI50 in [7], in assay [8], in assay [9], in assay [10], in assay [11] and in [12] was > 100 µM (inactive) each time. Also, the GI50 in assay [13], in assay [14], in assay [15], in assay [16], in assay [17] and in [18] was > 100 µM (inactive) throughout. Also, the GI50 in assay [19] and in [20] was > 100 µM (inactive) in each case.

For `C[C@H]1[C@H](C)CC[C@]2(C(=O)OC3OC(CO)C(O)C(O)C3O)CC[C@]3(C)C(=CC[C@@H]4[C@@]5(C)C[C@H]6OC(=O)c7cc(O)c(O)c(O)c7-c7c(cc(O)c(O)c7O)C(=O)O[C@@H]6C(CO)(CO)[C@@H]5CC[C@]43C)[C@H]12` (stereo not given in full), the GI50 is > 100 µM (inactive) in assay [1]; > 100 µM (inactive) in [2]; > 100 µM (inactive) in assay [3]; 82.4 µM (inactive) in assay [4]; 24.1 µM (inactive) in assay [5]; 49.3 µM (inactive) in assay [6]. Also, the GI50 in assay [7] was 42.9 µM (inactive); in assay [8], > 100 µM (inactive); in [9], 17 µM (inactive); in assay [10], 25.5 µM (inactive); in assay [11], > 41.5 µM (inactive); in assay [12] it was 45.1 µM (inactive). The GI50 in assay [13] is > 100 µM (inactive); in assay [14], > 69.8 µM (inactive); in assay [15], 40.6 µM (inactive); in assay [16], > 100 µM (inactive); in assay [17], 72.9 µM (inactive); in assay [18], 58.3 µM (inactive). Besides, the GI50 in assay [19] was > 100 µM (inactive); in assay [20] it was 58.1 µM (inactive).

On to `NS(=O)(=O)c1ccc(Nc2c3ccccc3nc3c(C(=O)NC(CO)(CO)CO)cccc23)cc1`, for which the GI50 in [1] was 0.123 µM (active); in assay [2] it was 0.0515 µM (active); in assay [3], 0.314 µM (active); in assay [4], 0.212 µM (active); in assay [5], 0.184 µM (active); in assay [6] it was 0.19 µM (active). Besides, the GI50 in assay [7] was 0.158 µM (active); in [8], 0.186 µM (active); in assay [9], 0.0143 µM (active); in [10] it was 0.272 µM (active); in [11] it was 0.0468 µM (active); in assay [12], 0.0668 µM (active). The GI50 in assay [13] was 0.769 µM (active); in assay [14] it was 0.17 µM (active); in assay [15], 0.294 µM (active); in [16], 0.21 µM (active); in assay [17], 0.107 µM (active); in assay [18], 0.199 µM (active). In addition, the GI50 in [19] was 0.164 µM (active); in [20] it was 0.171 µM (active).

On to `CC(=O)Nc1ccc(/C=C2/NC(=S)N(/C=C3\C(=O)Oc4ccccc4C3=O)C2=O)cc1`, for which the GI50 was 58.9 µM (inactive) in assay [1]; 61.8 µM (inactive) in [2]; > 100 µM (inactive) in assay [3]; 43.2 µM (inactive) in [4]; 44.9 µM (inactive) in [5]; 49.4 µM (inactive) in [6]. Moreover, the GI50 in assay [7] is 45.2 µM (inactive); in [8], 58.3 µM (inactive); in assay [9], > 100 µM (inactive); in assay [10], 52 µM (inactive); in [11] it was 48 µM (inactive); in [12] it was 35.6 µM (inactive). Besides, the GI50 is 33.7 µM (inactive) in assay [13]; 29.4 µM (inactive) in [14]; 49.8 µM (inactive) in [15]; 40.9 µM (inactive) in [16]; 77.6 µM (inactive) in assay [17]; 94.6 µM (inactive) in [18]. For the same compound, the GI50 was 55.8 µM (inactive) in assay [19] and 39.5 µM (inactive) in assay [20].

With `CCC1(O)CC(OC2CC(N(C)C)C(OC3CC(O)C(OC4OC(C)C(=O)C=C4N)C(C)O3)C(C)O2)c2c(O)c3c(c(O)c2C1C(=O)OC)C(=O)c1cccc(O)c1C3=O` (stereo not given), the GI50 is 0.00356 µM (active) in [1]; 0.00376 µM (active) in assay [2]; 0.0103 µM (active) in [3]; 0.0302 µM (active) in assay [4]; 0.00475 µM (active) in assay [5]; 0.000196 µM (active) in [6]. For the same compound, the GI50 in assay [7] is 0.0032 µM (active); in assay [8], 0.01 µM (active); in [9], 0.002 µM (active); in [10], 0.0048 µM (active); in assay [11], 0.00231 µM (active); in assay [12], 0.000452 µM (active). Also, the GI50 is 0.0916 µM (active) in assay [13]; 0.0925 µM (active) in assay [14]; 0.00134 µM (active) in assay [15]; 0.00927 µM (active) in assay [16]; 0.00417 µM (active) in assay [17]; 0.0259 µM (active) in assay [18]. Further, the GI50 in assay [19] was 0.0168 µM (active); in [20] it was 0.0472 µM (active).
